Consider 1 compound from US20070191462A1, “Combination of A 5-HT(1) Receptor Agonist and an Alpha-2-Delta Ligand for the Treatment of Migraine” (Pfizer Limited, priority 2004, published 2007).

In this test the test system is 2nd sensory neuron in the trigeminal nucleus caudalis (TNC). Briefly: rat model of migraine: sensitization induced by inflammatory soup applied to the dura, monitored by electrophysiology in the TNC. The test is classed as in vivo. The following applies: eletriptan given 3 hours after inflammatory soup on the dura; observed as late as 5.5 hours after sensitization.

For the compound `CN1CCC[C@@H]1Cc1c[nH]c2ccc(CCS(=O)(=O)c3ccccc3)cc12` [eletriptan], the “reversal of sensitization of responses to sensory stimuli (brush and pin)” value is reported as “did not reverse the sensitization”.
